SMILES	melting point [°C]
CCCC(=O)c1ccc(OC)c(Cl)c1Cl	42 to 44
CN(c1ccncc1)c1ccccc1C(=O)N1CCCCC1	110 to 111
O=C1C(CCO)Oc2ccccc2N1Cc1ccc2ccccc2c1 (centres undefined)	81 to 87
CN1CCN(C(=O)c2ccc(-c3cnc4c(c3)N(Cc3cc(F)ccc3F)CC(C)(C)N4)cc2)CC1	191 to 192
NCC1Cc2cc(F)cc(-c3cc(Cl)ccc3Cl)c2O1 (centres undefined)	165 to 166
Cc1c(CBr)oc2ccc(Cl)cc12	81 to 82
COC(=O)c1cc(Cl)sc1NC(C)=O	110
COC(=O)N1CCC(=C2c3ccccc3CCc3cccnc32)CC1	116 to 118
N#Cc1ncc(Cl)cc1F	72 to 73
C[C@@H]1CCC[C@H](C)N1CCNC(=O)CN1C(=O)CCC1(C)C	94 to 94.5
COc1cc2nc(C(C)(C)C)sc2cc1NC(=S)N1CCN(CCO)CC1	161 to 162
O=C1[C@H](CC[C@H](O)c2ccc(F)cc2)[C@@H](c2ccc(O)c(-c3ccccc3)c2)N1c1ccc(F)cc1	113
O[C@@H]1CN=C(c2ccc(N3CCOCC3)cc2)O[C@H]1c1ccccc1 (racemic)	150
O=C(O)c1cn(C2CC2)c2c(F)c(N3CCC[C@H]3CO)c(F)cc2c1=O	209 to 210
CS(=O)(=O)Nc1ccc(OCC2CCN(c3cc([N+](=O)[O-])ccn3)CC2)cc1	184
Nc1ccc2ccc(SCc3ccccc3)nc2n1	167
CC(C)(C)OC(=O)NCCNC(=O)c1cc(Cl)cc(Cl)n1	126 to 127
N#Cc1c(Cl)c2cc(Cl)ccc2n(Cc2ccccc2)c1=O	243
COC(=O)[C@H]1CN(C(=O)OC(C)(C)C)C[C@H]1c1ccc(OC)c(OC2CCCC2)c1 (relative stereo)	85 to 87
Cn1c(Cc2cccc(C(F)(F)F)c2)nc2c(-c3cccc(C(=O)NCCC#N)c3)cccc21	168 to 169
CC(C)(C)CNC(=O)C1=C(C(=O)Nc2cc(OC3CCCC3)c(Cl)cc2F)CCCC1	173 to 175
COc1ccc(CN2C(=O)CNS2(=O)=O)cc1	111 to 113

SMILES	melting point [°C]
Cc1ccnc2c(Oc3ccccc3NS(=O)(=O)c3ccc(Cl)cc3)cccc12	123 to 125
Cc1cc2c(cc1-c1ccc(C=O)s1)C(C)(C)CCC2(C)C	130 to 135
COc1cc(OC)nc(Sc2c(NC(=O)C(F)(F)F)nc(C)n2C)n1	160 to 162
OC(CCN1CC=C(c2ccc(Cl)cc2)CC1)c1ccc(Cl)cc1 (centres undefined)	154 to 155
[O-][N+]1=C(c2ccccc2Cl)c2cc(Cl)ccc2C=CC1	196 to 197
CCCNC(=S)NS(=O)(=O)c1cc2c(cc1OC)OCCC2CNC(=O)N1CC(C)=C(CC)C1=O (centres undefined)	96 to 98
COc1ccccc1[C@H](c1cccc2ccccc12)[C@@](C)(C#N)C(=O)N1CCC(c2cccc(C(F)(F)F)c2)CC1	123 to 127
Cc1ccc(C(=O)c2cc(CCN(C)C)c(O)c(C(C)(C)C)c2)cc1	123 to 124
Cc1c(C2CCN(C)CC2)[nH]c(=O)c2ccccc12	202 to 204
COc1nc2cc(Cl)c(Cl)c(N(CCO)S(C)(=O)=O)c2nc1OC	240 to 242
Cc1nc2ccccc2n1-c1ccccn1	121 to 123
O=C(O)c1cc(-n2cccc2)cc(C(F)(F)F)c1	191 to 192
COC(=O)Nc1cc(OC2CCCC2)c(Cl)cc1F	120 to 123
OC[C@H](F)[C@H](OCc1ccccc1)[C@H](OCc1ccccc1)[C@@H](O)C(F)(F)F	64 to 65
O=c1cc(CCl)nc2ccn(-c3ccccc3)n12	194 to 196
O=C(O)CCc1conc1-c1ccc(Cl)c(F)c1	148 to 149
COc1ccc(Nc2cc(-c3ccc(F)cc3)nc3ccccc23)cc1Cl	260
O=[N+]([O-])c1ccc2ncnc(Nc3cc(Cl)c(Cl)cc3F)c2c1	270 to 271
CC12CC(=O)C3C(C=CC4=CC(=O)CCC43C)C1CCC2=O (centres undefined)	237
CCOC(=O)COCc1nnc(S)o1	101 to 103
O=C(N[C@H]1CC[C@H](CCN2CCC(c3cccc4c3CCO4)CC2)CC1)c1ccc(-n2cccc2)cc1	228
CC(=O)NCC1CN(c2ccc(-n3cnc(Cn4cccn4)c3)c(F)c2)C(=O)O1 (centres undefined)	158 to 160

SMILES	melting point [°C]
C=Cc1ccc(-c2ccccc2F)cc1	38
COc1cc2c(cc1-c1nc3cc(Cl)ccc3o1)oc1ccccc12	191 to 193
O=C(c1cccs1)c1cnn2c(-c3cccc(NCc4ccco4)c3)ccnc12	124 to 128
O=C(C=Cc1cccnc1)NCCCCN1CCN(C(c2ccccc2)c2ccccc2)CC1	143 to 144
COC(=O)Cc1cc(Cl)ccc1O	84 to 85
ON=Cc1cn2c(cnc3ccccc32)n1	243 to 245
Cc1ccc(-c2nc(-c3ccc(C)cc3C)nc(-c3ccc(O)cc3O)n2)c(C)c1	199 to 201
O=C(Nc1cccc(C(F)(F)F)c1)C12CC3CC(CC(C3)C1)C2	171 to 174
Cc1n[nH]c2ccc(-c3ccc4nnn(Cc5ccc6ncccc6c5)c4n3)cc12	246 to 249
CC(N1CCN(c2ncn(Cc3ccc(C(F)(F)F)cc3)n2)CC1)C(O)(Cn1cncn1)c1ccc(F)cc1F (centres undefined)	69 to 72
O=c1ccc(CO)c[nH]1	130
CCOC(=O)/C=C/c1cc(-n2cnnc2)cc(C(F)(F)F)c1N	225 to 227
OCC(CO)(c1ccccc1)c1ccccc1	102 to 104
Cc1nc(-c2ccc(O)cc2)[nH]c1Br	205 to 212
O=C(NCCO)c1cccc(-c2cccc3nn(Cc4cc(F)cc(Cl)c4)cc23)c1	188 to 189
N#Cc1ccc2c(c1)-c1cc(C#N)ccc1OCCO2	195 to 196
Cn1cc(Cc2cc3cc(C(F)(F)F)ccc3n2S(=O)(=O)c2cccc(C(C)(C)C)c2)cc1C(=O)O	160
CCc1nc(OC)c(NC(=O)N2CCN(c3cccc(O)c3)CC2)cc1C(=O)NC(C)C(=O)Nc1cc(CO)cc(Nc2c3ccccc3nc3ccccc23)c1 (centres undefined)	207 to 209
COc1ccccc1NC(=O)Nc1nc(Oc2ccc3ccccc3c2)nc(N(CCC(=O)O)Cc2ccccc2C(F)(F)F)n1	232 to 233
Clc1cccc(C(c2ccnc3ccccc23)n2ccnc2)c1 (centres undefined)	184
CCOc1ncc(S(=O)(=O)N2CCN(CC)CC2)cc1-c1nc2c(CC)n(CCOC)nc2c(=O)[nH]1	158 to 160

Now from value to compound:

melting point [°C]	SMILES
190 to 191	CC(C)(C)OC(=O)Nc1cc(N2CCOCC2)c(C#Cc2ccccc2)cc1[N+](=O)[O-]
> 260	CCOC(=O)c1cnc2ccc(OC)cc2c1O
139	CCOC(=O)C1=C(C)NC(N)=C(C(=O)OC(C)C)C1c1ccccc1[N+](=O)[O-] (centres undefined)
211 to 213	COC(=O)c1ccc2oc(-c3ccccc3OCC(C)OC(=O)c3ccccc3)cc(=O)c2c1 (centres undefined)
80 to 85	COC(=O)c1ccc(CNC(=O)[C@@H]2Cc3ccccc3N2S(=O)(=O)c2ccc(I)cc2)cc1
104 to 105	COc1ccc(CNC(=O)c2ccccc2N)cc1
119 to 120	CN(CCC=C1c2ccccc2C=Cc2ccccc21)CCC(=O)O
79 to 80	CCOC(=O)C=C(C)Nc1ccc(F)c(OCc2ccccc2)c1
172 to 173	CCCn1nc2c(N)nc3ccccc3c2c1CCCCCl
105 to 106	CCOC(=O)NNS(=O)(=O)c1ccc(C)cc1
169 to 172	CCCOc1ccc(S(=O)(=O)NCCc2c[nH]cn2)cc1-c1nc2cc(N)c([N+](=O)[O-])cc2c(=O)[nH]1
175	O=C(O)Cc1c(-c2ccccc2)c(=O)[nH]c2cc(Cl)ccc12
158	COc1nn2ccccc2c1C(C)=O
158 to 159	Cc1cccc(C2NS(=O)(=O)c3ccccc32)c1 (single isomer, unassigned; (+))
91	COC(=O)c1cc(-c2cccs2)cc(C)c1NS(=O)(=O)c1ccc(OC)cc1
138 to 139	CC(C)Cn1c(C(=O)OC(C)(C)C)c(-c2ccccc2)c2cc(OCc3ccccc3)ccc2c1=O
156 to 157	O=C(O)CCCc1ncccc1NS(=O)(=O)c1ccccc1

melting point [°C]	SMILES
162	CCOC(=O)NC1=NN(c2cccc(Cl)c2)C(=O)C1C (centres undefined)
120 to 121	COCC(=O)Nc1c(C(O)(C(F)(F)F)C(F)(F)F)ccc2ccccc12
131 to 133	CCOC(=O)c1cc(=O)cc(-c2ccc(OC)cc2)o1
128 to 132	Cc1cccc(-c2ncc(NC(=O)OCc3ccccc3)c(=O)n2CC(=O)NC(Cc2ccccc2)C(=O)C(F)(F)F)c1 (centres undefined)
209 to 210	Cc1cc2c(-c3ccccc3)c(CO)n(C)c(=O)c2cc1C
307 to 309	CC(=O)OCCn1nc(O)c2[nH]c3cc(Cl)ccc3c(=O)c2c1=O
92 to 94	COC(=O)C(C)Oc1ccc(Oc2ncc(Cl)cc2N)cc1 (centres undefined)
267 to 270	Cc1ccc2cccc(OCc3c(Cl)ccc(C(=O)O)c3Cl)c2n1
186 to 188	CN(CC(=O)OC(C)(C)C)c1nccc(-c2nc(=O)c3ccccc3s2)n1
108 to 110	COC(=O)c1cnccc1SCc1ccc(OC)cc1
146 to 147	CCOC(=O)c1csc(NC(=O)c2ccccc2)n1
218 to 219	CC(C)n1nc(-c2c(-c3ccccc3)nn3c(N)cccc23)ccc1=O
137 to 140	COc1ccc2c(c1)[C@H](CO)OC2=O
192 to 194	CCOCc1nc2c(N)nc3ccccc3c2n1CC1CCN(C)C(=O)O1 (centres undefined)
90 to 92	CCOC(=O)CC(=O)c1c(F)c(F)c(N2CCC(NC(C)=O)C2)c(F)c1F (centres undefined)
182 to 184	CON=C(Cl)c1ccccc1S(=O)(=O)NC(=O)Nc1nc(C)nc(OC)n1
212 to 215	COc1cccc(C=CC(=O)C2=C(O)C(=C(C)Nc3ccccc3N)C(=O)OC2=O)c1OC

From a melting point compilation (Tetko et al.; mined from patent text by program, amines drawn as free bases though some values may be those of a salt)
